Measured values taken from PubChem BioAssay (NCI).
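Cultured in 96-well plates, cells were exposed to test compound for 48 hours across five concentrations. TGI marks complete inhibition of growth.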

Assays:
Assay in all cases: NCI anticancer screen, dose series, 48 h
OVCAR-8 ovarian = tested on: OVCAR-8 ovarian
SK-MEL-2 melanoma = tested on: SK-MEL-2 melanoma
SK-MEL-28 melanoma = tested on: SK-MEL-28 melanoma
M14 melanoma = tested on: M14 melanoma
CAKI-1 renal = tested on: CAKI-1 renal
NCI-H460 lung = tested on: NCI-H460 lung
MDA-N = tested on: MDA-N
HCT-15 colon = tested on: HCT-15 colon
NCI-H23 lung = tested on: NCI-H23 lung
SR leukemia = tested on: SR leukemia
HS 578T breast = tested on: HS 578T breast
SF-539 CNS = tested on: SF-539 CNS
786-0 renal = tested on: 786-0 renal
OVCAR-4 ovarian = tested on: OVCAR-4 ovarian
MDA-MB-435 = tested on: MDA-MB-435
K-562 leukemia = tested on: K-562 leukemia
T-47D breast = tested on: T-47D breast
SF-268 CNS = tested on: SF-268 CNS
MCF7 breast = tested on: MCF7 breast

Structure (SMILES) | TGI (OVCAR-8 ovarian) | TGI (SK-MEL-2 melanoma) | TGI (SK-MEL-28 melanoma) | TGI (M14 melanoma) | TGI (CAKI-1 renal) | TGI (NCI-H460 lung) | TGI (MDA-N) | TGI (HCT-15 colon) | TGI (NCI-H23 lung) | TGI (SR leukemia) | TGI (HS 578T breast) | TGI (SF-539 CNS) | TGI (786-0 renal) | TGI (OVCAR-4 ovarian) | TGI (MDA-MB-435) | TGI (K-562 leukemia) | TGI (T-47D breast) | TGI (SF-268 CNS) | TGI (MCF7 breast)
CSC1=C(C#N)C(=S)N=C(N)C1C(=O)Nc1ccc(C)cc1 (configuration not stated) | > 100 µM | > 100 µM | > 100 µM | > 100 µM | > 100 µM | > 100 µM | > 100 µM | > 100 µM | > 100 µM | > 100 µM | > 100 µM | > 100 µM | > 100 µM | > 100 µM | > 100 µM | > 100 µM | > 100 µM | > 100 µM | 
NC(=O)c1ccc(C(=O)Nc2ccc([As](=O)(O)O)cc2)cc1 | > 100 µM | > 100 µM | > 100 µM | > 100 µM | > 100 µM | > 100 µM | > 100 µM | > 100 µM | > 100 µM |  | > 100 µM |  | > 100 µM | > 100 µM | > 100 µM | > 100 µM | > 100 µM | > 100 µM | > 100 µM
COC(=O)NC(Nc1ccccn1)(C(F)(F)F)C(F)(F)F | > 100 µM | > 100 µM | > 100 µM | > 100 µM | > 100 µM | > 100 µM | > 100 µM | > 100 µM | > 100 µM | > 100 µM | > 100 µM | > 100 µM | > 100 µM |  | > 100 µM | > 100 µM | > 100 µM | > 100 µM | > 100 µM
Cc1c(-c2ccc(O)cc2)n(CCCCCCNCCOC(=O)NCCCc2ccc(N(CCCl)CCCl)cc2)c2ccc(O)cc12 | 2.88 µM | 23.8 µM | 13.8 µM | 3 µM | 25.7 µM | 5.05 µM | 3.47 µM | 3.56 µM | 3.45 µM | 3.18 µM | 7.49 µM | 3.11 µM | 2.97 µM | 4.44 µM | 3.21 µM |  | 5.8 µM | 3.45 µM | 2.23 µM
C=CCC1(O)CC(n2cc(C)c(=O)[nH]c2=O)OC1CO[Si](C)(C)C(C)(C)C (configuration not stated) | > 100 µM | > 100 µM | > 100 µM | > 100 µM | > 100 µM | > 100 µM | > 100 µM | > 100 µM | > 100 µM | > 100 µM |  | > 100 µM | > 100 µM | > 100 µM | > 100 µM | > 100 µM | > 100 µM |  | > 100 µM
CCOC(=O)c1c(SC(=O)c2ccc(C(C)(C)C)cc2)n(-c2ccccc2)c(=S)n(-c2ccccc2)c1=O | > 100 µM |  | > 100 µM | > 100 µM | > 100 µM | > 100 µM | > 100 µM | > 100 µM | > 100 µM | > 100 µM | > 100 µM | > 100 µM | > 100 µM | > 100 µM | > 100 µM | > 100 µM | > 100 µM | > 100 µM | > 100 µM
C/C=C/C(C#N)(/C=C/c1ccccc1)OP1(=O)OC(c2ccccc2)C(C)N1C (configuration not stated) | 35.5 µM | 35.9 µM | 32.7 µM | 37.1 µM | 54.8 µM | 33.8 µM | 39 µM |  |  |  | 49.9 µM | 35.1 µM | 31.7 µM |  | 34.9 µM | 39.3 µM | 68.9 µM | 42.1 µM | 49.4 µM
C=C1C[C@@H]2CC[C@@]34CC5O[C@H]6C(O[C@H]7CC[C@H](CC(=O)O[C@@H]8[C@@H](C)[C@@H]9O[C@@H]%10C[C@]%11(C[C@@H]%12O[C@]%13(C[C@H](C)[C@@H]%14O[C@@H]%15CC(C(O)CO)O[C@@H]%15C[C@@H]%14O%13)C[C@H](C)[C@@H]%12O%11)O[C@@H]%10C[C@@H]9O[C@H]8CC8O[C@@H](CC[C@@H]1O2)C[C@@H](C)C8(O)CO)O[C@@H]7[C@@H]6O3)[C@H]5O4 (some centres not stated) | > 1 µM | > 1 µM | > 1 µM | > 1 µM | > 1 µM | > 1 µM | > 1 µM | > 1 µM | > 1 µM | > 1 µM | > 0.815 µM |  | > 1 µM | > 1 µM | > 1 µM | > 1 µM | > 1 µM | > 1 µM | > 1 µM
COc1ccccc1CCN1CCN(CCCc2ccccc2)CC1 | > 100 µM | > 100 µM | > 100 µM | 76.4 µM | > 100 µM | > 100 µM | > 100 µM | > 100 µM |  | > 100 µM | > 100 µM | > 100 µM | > 100 µM | > 100 µM | > 100 µM | > 100 µM | > 100 µM | > 100 µM | > 100 µM
COc1c2c(cc3c1C(=O)c1c(O)cccc1C3=O)CC(O)CC2 (configuration not stated) | > 100 µM | > 100 µM | > 100 µM | > 100 µM | > 100 µM | > 100 µM | > 100 µM | > 100 µM | 47 µM |  | 74.1 µM | > 100 µM | > 100 µM | > 100 µM | > 100 µM | > 100 µM | 93.6 µM |  | > 100 µM
O=c1c2cccnc2n2n1Cc1ccccc1C2 | > 100 µM |  | > 100 µM |  | > 100 µM | > 100 µM | > 100 µM | > 100 µM | > 100 µM | > 100 µM | > 100 µM | > 100 µM | > 100 µM | > 100 µM | > 100 µM | > 100 µM | > 100 µM | > 100 µM | > 100 µM
O=C1C=Cc2c(Br)sc(Br)c21 | > 100 µM | 70.3 µM | 84.9 µM | 84.4 µM | 41.1 µM | > 100 µM | > 100 µM | 90.4 µM | > 100 µM | 75.2 µM | > 100 µM | > 100 µM | > 100 µM |  | 46.1 µM | 54.5 µM | 81.8 µM | > 100 µM | > 100 µM
c1ccc(C(C2=Nc3cccc4cccc(c34)N2)c2ccccc2)cc1 | > 100 µM | 50 µM | 52 µM | 65 µM | > 100 µM | 54.3 µM | 49.3 µM | 93.6 µM | > 100 µM |  | 81.8 µM | 34.2 µM | 69.9 µM | > 100 µM | 66.1 µM | 81.7 µM | 37 µM | 66.1 µM | > 100 µM
